This experiment addresses T1, human PD-L1 / human PD-1 interaction (Homo sapiens, UniProt Q9NZQ7).
T1 construct: purchased R&D (PD-L1); ACRO Biosystems (PD-1, biotin)
The experiment can be described thus: ELISA of PD-1/PD-L1 interaction. The class given is binding. The procedure: The activity of Compound 1.041 was assessed with an ELISA assay assessing the direct binding of recombinant PD-1 and PD-L1 proteins (FIG. 1A), a dimerization ELISA assay assessing the direct binding/dimerization of recombinant PD-L1 proteins (FIG. 1B), a cell based assay measuring the downstream signaling following the interaction of PD-1 and PD-L1 using a Luciferase reporter assay with cell lines overexpressing PD-1 and PD-L1 (FIG. 1C), and a mixed lymphocyte reaction assay measuring the functional outcome of upregulation of IFNg secretion, using allogenic primary human immune cells (FIG. 1D). Briefly, the mixed lymophocyte reaction assay was performed as follows: Dendritic cells and CD4+T Cells from unmatched donors were cultured together for 5 days in 96 well-flat bottom plates. Test compound was added as indicated at starting concentration of 1 μM with 1:4 dilutions with DMSO. Supernatants were harvested after 5 days of incubation and detection of human IFNg was performed by ELISA. […]
96 Well plates were coated with 1 μg/mL of human PD-L1 (obtained from R&D) in
PBS overnight at 4° C. The wells were then blocked with 2% BSA in PBS (WN) with 0.05% TWEEN-20 for 1 hour at 37° C. The plates were washed 3 times with PBS/0.05% TWEEN-20 and the compounds were serial diluted (1:5) in dilution medium and added to the ELISA plates. Human PD-1 and biotin 0.3μg/mL (ACRO Biosystems) were added and incubated for 1 hour at 37° C. then washed 3 times with PBS/0.05% TWEEN-20. A second block was performed with 2% BSA in PBS (WN)/0.05% TWEEN-20 for 10 min at 37° C. and was washed 3 times with PBS/0.05% TWEEN-20. Streptavidin—HRP was added for 1 hour at 37° C. then washed 3 times with PBS/0.05% TWEEN-20. TMB substrate was added and reacted for 20 min at 37° C. A stop solution (2 N aqueous H2SO4) was added. The absorbance was read at 450 nm using a micro-plate spectrophotometer.
On the technique in general: In an ELISA, binding on a coated surface is turned into a signal by an enzyme label.

Each structure is given as a SMILES string.

T1 sequence (Q9NZQ7 19-239 limits assumed): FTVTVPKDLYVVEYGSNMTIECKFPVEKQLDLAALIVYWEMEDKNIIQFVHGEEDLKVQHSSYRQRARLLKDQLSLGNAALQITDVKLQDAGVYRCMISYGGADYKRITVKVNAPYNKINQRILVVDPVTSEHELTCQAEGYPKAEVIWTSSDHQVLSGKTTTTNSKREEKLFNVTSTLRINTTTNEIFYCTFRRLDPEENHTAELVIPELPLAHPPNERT

On to `Cc1c(OCCCN2CC[C@@H](O)C2)cccc1-c1cccc2c1CC[C@@H]2Oc1cc(OCc2cncc(C#N)c2)c(CN[C@H](C(=O)O)[C@@H](C)O)cc1Cl`, for which the IC50 was less than 5 nM.
As to `Cc1c(OCCCN2CCC(F)CC2)cccc1-c1cccc2c1CC[C@@H]2Oc1cc(OCc2cncc(C#N)c2)c(CN[C@H](C(=O)O)[C@@H](C)O)cc1Cl`, the 50% inhibitory concentration (IC50) was less than 5 nM.
As for `Cc1c(OCCCN2CCC(F)(F)CC2)cccc1-c1cccc2c1CC[C@@H]2Oc1cc(OCc2cncc(C#N)c2)c(CN[C@H](C(=O)O)[C@@H](C)O)cc1Cl`, the figure is 5 to 500 nM; as for `Cc1c(OCCCN2CCC(CO)CC2)cccc1-c1cccc2c1CC[C@@H]2Oc1cc(OCc2cncc(C#N)c2)c(CN[C@H](C(=O)O)[C@@H](C)O)cc1Cl`, less than 5 nM; as for `Cc1c(OCCCN2CC(O)C2)cccc1-c1cccc2c1CC[C@@H]2Oc1cc(OCc2cncc(C#N)c2)c(CN[C@H](C(=O)O)[C@@H](C)O)cc1Cl`, less than 5 nM.
As for `C[C@@](CO)(NCc1cc(Cl)c(O[C@H]2CCc3c(-c4cccc(OCCCN5CCC(O)CC5)c4Cl)cccc32)cc1OCc1cncc(C#N)c1)C(=O)O`, the figure is less than 5 nM.
`C[C@@H](O)[C@H](NCc1cc(Cl)c(O[C@H]2CCc3c(-c4cccc(OCCCN5CCCCC5)c4Cl)cccc32)cc1OCc1cncc(C#N)c1)C(=O)NS(C)(=O)=O` had an IC50 of less than 5 nM.
As for `N#Cc1cncc(COc2cc(O[C@H]3CCc4c(-c5cccc(OCCCN6CCC(F)CC6)c5Cl)cccc43)c(Cl)cc2CN[C@@H]2CCC[C@@H]2O)c1`, the figure is less than 5 nM; as for `N#Cc1cncc(COc2cc(O[C@H]3CCc4c(-c5cccc(OCCCN6CCC(F)CC6)c5Cl)cccc43)c(Cl)cc2CN[C@@H]2CCC[C@H]2O)c1`, less than 5 nM.
As for `C[C@@](CO)(NCc1cc(Cl)c(O[C@H]2CCc3c(-c4cccc(OCCCN)c4Cl)cccc32)cc1OCc1cncc(C#N)c1)C(=O)O`, the figure is less than 5 nM.
As for `CC1(C)CC(O)CCN1CCCOc1cccc(-c2cccc3c2CC[C@@H]3Oc2cc(OCc3cncc(C#N)c3)c(CN[C@@H]3CCCC[C@@H]3O)cc2Cl)c1Cl` (some centres unmarked), the figure is less than 5 nM; as for `CC1(F)CCN(CCCOc2cccc(-c3cccc4c3CC[C@@H]4Oc3cc(OCc4cncc(C#N)c4)c(CN[C@@H]4CCCC[C@@H]4O)cc3Cl)c2Cl)CC1`, less than 5 nM.
For the molecule `C[C@@H](O)[C@H](NCc1cc(Cl)c(O[C@H]2CCc3c(-c4cccc(OCCCN5CCC(C)(F)CC5)c4Cl)cccc32)cc1OCc1cncc(C#N)c1)C(=O)NS(C)(=O)=O`, the IC50 is less than 5 nM.
As for `CC(=O)OC1CCN(CCCOc2cccc(-c3cccc4c3CC[C@@H]4Oc3cc(OCc4cncc(C#N)c4)c(CN[C@@H]4CCCC[C@@H]4O)cc3Cl)c2Cl)CC1`, the figure is less than 5 nM; as for `N#Cc1cncc(COc2cc(O[C@H]3CCc4c(-c5cccc(OCCCN6CCC(F)CC6)c5Cl)cccc43)c(Cl)cc2CN[C@H]2CCC[C@H]2O)c1`, less than 5 nM.
As for `N#Cc1cncc(COc2cc(O[C@H]3CCc4c(-c5cccc(OCCCN6CCC(F)CC6)c5Cl)cccc43)c(Cl)cc2CN[C@H]2CCC[C@@H]2O)c1`, the figure is less than 5 nM.
As for `N#Cc1cncc(COc2cc(O[C@H]3CCc4c(-c5cccc(OCCCN6CCC(F)CC6)c5Cl)cccc43)c(Cl)cc2CNCC2CNC(=O)C2)c1` (some centres unmarked), the figure is less than 5 nM; as for `Cc1c(OCCCN2CCC(F)CC2)cccc1-c1cccc2c1CC[C@@H]2Oc1cc(OCc2cc(C#N)cc(C#N)c2)c(CNC[C@@H]2CCC(=O)N2)cc1Cl`, less than 5 nM.
In turn, `C[C@@](CO)(NCc1cc(Cl)c(O[C@H]2CCc3c(-c4cccc(OCCCN5CCC5)c4Cl)cccc32)cc1OCc1cncc(C#N)c1)C(=O)O` yielded an IC50 of less than 5 nM.
As for `N#Cc1cncc(COc2cc(O[C@H]3CCc4c(-c5cccc(OCCCN6CC7(CCC7)C6)c5Cl)cccc43)c(Cl)cc2CN[C@@H]2CCCC[C@@H]2O)c1`, the figure is less than 5 nM; as for `C[C@@H](O)[C@H](NCc1cc(Cl)c(O[C@H]2CCc3c(-c4cccc(OCCCN5CCC(F)CC5)c4Cl)cccc32)cc1OCc1cncc(C#N)c1)C(=O)NS(C)(=O)=O`, less than 5 nM; as for `N#Cc1cncc(COc2cc(O[C@H]3CCc4c(-c5cccc(OCCCN6CCC(F)CC6)c5Cl)cccc43)c(Cl)cc2CN[C@@H]2CCOC[C@H]2O)c1`, less than 5 nM.
In the case of `N#Cc1cncc(COc2cc(O[C@H]3CCc4c(-c5cccc(OCCCN6CCC(F)CC6)c5Cl)cccc43)c(Cl)cc2CN[C@@H]2CCOC[C@@H]2O)c1`, the IC50 is less than 5 nM.
As for `N#Cc1cncc(COc2cc(O[C@H]3CCc4c(-c5cccc(OCCCN6CCC(F)CC6)c5Cl)cccc43)c(Cl)cc2CN[C@H]2CCOC[C@H]2O)c1`, the figure is less than 5 nM; as for `N#Cc1cncc(COc2cc(O[C@H]3CCc4c(-c5cccc(OCCCN6CC7(CC(O)C7)C6)c5Cl)cccc43)c(Cl)cc2CN[C@@H]2CCC[C@@H]2O)c1`, less than 5 nM; as for `N#Cc1cncc(COc2cc(O[C@H]3CCc4c(-c5cccc(OCCCN6CC7(CC(O)C7)C6)c5Cl)cccc43)c(Cl)cc2CN[C@@H]2CCC[C@H]2O)c1`, less than 5 nM.
As for `N#Cc1cncc(COc2cc(O[C@H]3CCc4c(-c5cccc(OCCCN6CC7(CC(O)C7)C6)c5Cl)cccc43)c(Cl)cc2CN[C@H]2CCC[C@H]2O)c1`, the figure is less than 5 nM; as for `N#Cc1cncc(COc2cc(O[C@H]3CCc4c(-c5cccc(OCCCN6CC7(CC(O)C7)C6)c5Cl)cccc43)c(Cl)cc2CN[C@H]2CCC[C@@H]2O)c1`, less than 5 nM; as for `N#Cc1cc(C#N)cc(COc2cc(O[C@H]3CCc4c(-c5cccc(OCCCN6CCC(F)CC6)c5Cl)cccc43)c(Cl)cc2CNC[C@H]2CCC(=O)N2)c1`, less than 5 nM.
As for `N#Cc1cncc(COc2cc(O[C@H]3CCc4c(-c5cccc(OCCCN6CC7(CC(F)C7)C6)c5Cl)cccc43)c(Cl)cc2CN[C@@H]2CCC[C@@H]2O)c1`, the figure is less than 5 nM; as for `N#Cc1cncc(COc2cc(O[C@H]3CCc4c(-c5cccc(OCCCN6CC7(CC(F)C7)C6)c5Cl)cccc43)c(Cl)cc2CN[C@@H]2CCC[C@H]2O)c1`, less than 5 nM.
On to `Cc1c(OCCCN2CCCCC2)cccc1-c1cccc2c1CC[C@@H]2Oc1cc(OCc2cc(C#N)cc(C#N)c2)c(CNC[C@H]2CCC(=O)N2)cc1Cl`, for which the IC50 is less than 5 nM.
As for `Cc1c(OCCCN2CCCCC2)cccc1-c1cccc2c1CC[C@@H]2Oc1cc(OCc2cc(C#N)cc(C#N)c2)c(CN[C@@H]2CCCC[C@@H]2O)cc1Cl`, the figure is less than 5 nM.
Consider `Cc1c(OCCCN2CCC(F)CC2)cccc1-c1cccc2c1CC[C@@H]2Oc1cc(OCc2cc(C#N)cc(C#N)c2)c(CN[C@@H]2CCC[C@@H]2O)cc1Cl`, for which the IC50 was less than 5 nM.
As for `Cc1c(OCCCN2CCC(F)CC2)cccc1-c1cccc2c1CC[C@@H]2Oc1cc(OCc2cc(C#N)cc(C#N)c2)c(CN[C@@H]2CCOC[C@H]2O)cc1Cl`, the figure is less than 5 nM; as for `Cc1c(OCCCN2CCC(F)CC2)cccc1-c1cccc2c1CC[C@@H]2Oc1cc(OCc2cc(C#N)cc(C#N)c2)c(CN[C@@H]2CCC[C@H]2O)cc1Cl`, less than 5 nM; as for `Cc1c(OCCCN2CCC(F)CC2)cccc1-c1cccc2c1CC[C@@H]2Oc1cc(OCc2cc(C#N)cc(C#N)c2)c(CN[C@H]2CCC[C@@H]2O)cc1Cl`, less than 5 nM.
The molecule `N#Cc1cncc(COc2cc(O[C@H]3CCc4c(-c5cccc(OCCCN6CCC(F)CC6)c5Cl)cccc43)c(Cl)cc2CN2CC3(C2)NC(=O)NC3=O)c1` had an IC50 of less than 5 nM.
With `N#Cc1cncc(COc2cc(O[C@H]3CCc4c(-c5cccc(OCCCN6CCC(F)CC6)c5Cl)cccc43)c(Cl)cc2CN[C@H]2CC[C@@H]2O)c1`, the IC50 is less than 5 nM.
As for `Cc1c(OCCCN2CCC(F)CC2)cccc1-c1cccc2c1CC[C@@H]2Oc1cc(OCc2cc(C#N)cc(C#N)c2)c(CN[C@H]2CCC[C@H]2O)cc1Cl`, the figure is less than 5 nM; as for `Cc1c(OCCCN2CCC(F)CC2)cccc1-c1cccc2c1CC[C@@H]2Oc1cc(OCc2cc(C#N)cc(C#N)c2)c(CN[C@H]2CCOC[C@H]2O)cc1Cl`, less than 5 nM; as for `N#Cc1cncc(COc2cc(O[C@H]3CCc4c(-c5cccc(OCCCN6CC7(CC(F)C7)C6)c5Cl)cccc43)c(Cl)cc2CN[C@H]2CCC[C@H]2O)c1`, less than 5 nM.
As for `N#Cc1cncc(COc2cc(O[C@H]3CCc4c(-c5cccc(OCCCN6CCC6)c5Cl)cccc43)c(Cl)cc2CN[C@@H]2CCCC[C@@H]2O)c1`, the figure is less than 5 nM; as for `N#Cc1cncc(COc2cc(O[C@H]3CCc4c(-c5cccc(OCCCN6CC7(CC(F)C7)C6)c5Cl)cccc43)c(Cl)cc2CN[C@H]2CCC[C@@H]2O)c1`, less than 5 nM; as for `N#Cc1cncc(COc2cc(O[C@H]3CCc4c(-c5cccc(OCCCN6CCC6)c5Cl)cccc43)c(Cl)cc2CNC[C@H]2CCC(=O)N2)c1`, less than 5 nM.
As for `N#Cc1cncc(COc2cc(O[C@H]3CCc4c(-c5cccc(OCCCN6CC7(CC(F)C7)C6)c5Cl)cccc43)c(Cl)cc2CNC[C@@H]2CCC(=O)N2)c1`, the figure is less than 5 nM.
For the molecule `N#Cc1cncc(COc2cc(O[C@H]3CCc4c(-c5cccc(OCCCN6CC7(CC(F)C7)C6)c5Cl)cccc43)c(Cl)cc2CNC[C@H]2CCC(=O)N2)c1`, the IC50 was less than 5 nM.

One may read the IC50 as the concentration that gives 50% inhibition.

For the origin of these results see patent US20210236476A1, “METHODS OF TREATING CANCER WITH SMALL MOLECULE PD-L1 INHIBITORS” (CHEMOCENTRYX, INC., priority 2018, published 2021).
